# Test results as given in PubChem BioAssay AID328 (DTP/NCI, 2004).
# “And” between values parts separate entries of the source, which are not always exact repeats. Equal entries are not always repeated. Toxic doses and inconclusive results are not listed.
# System: BDF1 mice, P388 leukemia ip, median survival T/C
# Test: NCI In Vivo Anticancer Drug Screen. Data for tumor model P388 Leukemia (intraperitoneal) in B6D2F1 (BDF1) mice
# Settings: endpoint: median survival time, higher = longer survival
# Procedure, shortened: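 In tumour-bearing mice, survival after compound treatment is set against the vehicle group and given as a quotient.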
# [1] = dose: 100.0 mg/kg/injection, schedule: Q01DX009 (ip), vehicle: saline with Tween-80
# [2] = dose: 100.0 mg/kg/injection, schedule: Q04DX003 (ip), vehicle: saline with Tween-80
# [3] = dose: 200.0 mg/kg/injection, schedule: Q01DX009 (ip), vehicle: saline with Tween-80
# [4] = dose: 200.0 mg/kg/injection, schedule: Q04DX003 (ip), vehicle: saline with Tween-80
# [5] = dose: 400.0 mg/kg/injection, schedule: Q01DX009 (ip), vehicle: saline with Tween-80
# [6] = dose: 400.0 mg/kg/injection, schedule: Q04DX003 (ip), vehicle: saline with Tween-80
compound,measurement,setting,value
O=S(=O)(c1ccccc1)N1C2=CCCC3CCCCC23c2ccccc21 (centres undefined),T/C,"dose: 100.0 mg/kg/injection, schedule: Q04DX002 (ip), vehicle: saline with Tween-80",95 % of control
same,T/C,"dose: 200.0 mg/kg/injection, schedule: Q04DX002 (ip), vehicle: saline with Tween-80",92 % of control
same,T/C,"dose: 400.0 mg/kg/injection, schedule: Q04DX002 (ip), vehicle: saline with Tween-80",92 % of control
Cc1cc(=O)[nH]c(N(CCO)CCO)n1,T/C,[1],100 % of control
same,T/C,[2],100 % of control
same,T/C,[3],96 % of control
same,T/C,[4],95 % of control
same,T/C,[5],88 % of control
same,T/C,[6],90 % of control
CCCCOCN1CCCCC1,T/C,"dose: 50.0 mg/kg/injection, schedule: Q04DX003 (ip), vehicle: saline with Tween-80",108 % of control
same,T/C,[2],120 % of control
same,T/C,[4],104 % of control
CC(=O)Nc1ccn(CC(=O)c2ccco2)c(=O)n1,T/C,[1],104 % of control
same,T/C,[2],105 % of control
same,T/C,[3],95 % of control
same,T/C,[4],105 % of control
same,T/C,[5],90 % of control
same,T/C,[6],100 % of control
CC[C@]12CN3CCc4c([nH]c5ccccc45)[C@@](C(=O)OC)(c4cc5c(cc4OC)N(C)[C@H]4[C@@](O)(C(=O)OC)[C@H](OC(C)=O)[C@]6(CC)C=CCN7CC[C@]54[C@@H]76)CC(C3)[C@H]1O2 (some centres undefined),T/C,"dose: 0.5 mg/kg/injection, schedule: Q01DX009 (ip), vehicle: saline",155 % of control
same,T/C,"dose: 1.0 mg/kg/injection, schedule: Q01DX009 (ip), vehicle: saline",160 % of control
same,T/C,"dose: 1.5 mg/kg/injection, schedule: Q01DX009 (ip), vehicle: Klucel (hydroxypropylcellulose) (HPC)",124 % of control
same,T/C,"dose: 3.0 mg/kg/injection, schedule: Q01DX009 (ip), vehicle: Klucel (hydroxypropylcellulose) (HPC)",162 % of control
same,T/C,"dose: 3.0 mg/kg/injection, schedule: Q01DX009 (ip), vehicle: saline",180 % of control
same,T/C,"dose: 3.9 mg/kg/injection, schedule: Q01DX009 (ip), vehicle: saline",160 % of control
same,T/C,"dose: 6.0 mg/kg/injection, schedule: Q01DX009 (ip), vehicle: Klucel (hydroxypropylcellulose) (HPC)",170 % of control and 171 % of control
same,T/C,"dose: 6.0 mg/kg/injection, schedule: Q01DX009 (ip), vehicle: saline with Tween-80",225 % of control
same,T/C,"dose: 6.0 mg/kg/injection, schedule: Q01DX009 (ip), vehicle: saline",234 % of control and 200 % of control
same,T/C,"dose: 9.0 mg/kg/injection, schedule: Q01DX009 (ip), vehicle: saline with Tween-80",95 % of control
same,T/C,"dose: 9.0 mg/kg/injection, schedule: Q01DX009 (ip), vehicle: saline",252 % of control
same,T/C,"dose: 12.0 mg/kg/injection, schedule: Q01DX009 (ip), vehicle: Klucel (hydroxypropylcellulose) (HPC)",186 % of control and 216 % of control
same,T/C,"dose: 12.0 mg/kg/injection, schedule: Q01DX009 (ip), vehicle: saline",240 % of control
same,T/C,"dose: 5.0 micrograms/kg/injection, schedule: Q01DX009 (ip), vehicle: saline",104 % of control
same,T/C,"dose: 10.0 micrograms/kg/injection, schedule: Q01DX009 (ip), vehicle: saline",109 % of control
same,T/C,"dose: 30.0 micrograms/kg/injection, schedule: Q01DX009 (ip), vehicle: saline",109 % of control
same,T/C,"dose: 60.0 micrograms/kg/injection, schedule: Q01DX009 (ip), vehicle: saline",100 % of control
same,T/C,"dose: 120.0 micrograms/kg/injection, schedule: Q01DX009 (ip), vehicle: saline",95 % of control
O=[N+]([O-])c1ccc(-[n+]2ccccc2)c([N+](=O)[O-])c1,T/C,"dose: 37.5 mg/kg/injection, schedule: Q01DX009 (ip), vehicle: saline",118 % of control
same,T/C,"dose: 75.0 mg/kg/injection, schedule: Q01DX009 (ip), vehicle: saline",122 % of control
same,T/C,"dose: 150.0 mg/kg/injection, schedule: Q01DX009 (ip), vehicle: saline",104 % of control
CC(=O)OC1CC2(O)C(CCC3(C)C(c4ccc(=O)oc4)CCC32O)C2(C)CCC(OC3OC(CO)C(O)C(O)C3O)C=C12 (centres undefined),T/C,"dose: 125.0 micrograms/kg/injection, schedule: Q01DX010 (ip), vehicle: saline",90 % of control
Cc1cc(C)c(S(=O)(=O)ON=C2c3ccccc3-c3ccccc32)c(C)c1,T/C,"dose: 25.0 mg/kg/injection, schedule: Q01DX001 (ip), vehicle: Klucel (hydroxypropylcellulose) (HPC)",100 % of control
same,T/C,"dose: 50.0 mg/kg/injection, schedule: Q01DX001 (ip), vehicle: Klucel (hydroxypropylcellulose) (HPC)",109 % of control
same,T/C,"dose: 100.0 mg/kg/injection, schedule: Q01DX001 (ip), vehicle: Klucel (hydroxypropylcellulose) (HPC)",113 % of control
same,T/C,"dose: 100.0 mg/kg/injection, schedule: Q01DX009 (ip), vehicle: Klucel (hydroxypropylcellulose) (HPC)",105 % of control
same,T/C,"dose: 200.0 mg/kg/injection, schedule: Q01DX001 (ip), vehicle: Klucel (hydroxypropylcellulose) (HPC)",95 % of control
same,T/C,"dose: 200.0 mg/kg/injection, schedule: Q01DX009 (ip), vehicle: Klucel (hydroxypropylcellulose) (HPC)",95 % of control
same,T/C,"dose: 400.0 mg/kg/injection, schedule: Q01DX001 (ip), vehicle: Klucel (hydroxypropylcellulose) (HPC)",109 % of control
same,T/C,"dose: 400.0 mg/kg/injection, schedule: Q01DX009 (ip), vehicle: Klucel (hydroxypropylcellulose) (HPC)",110 % of control
O=C(CBr)c1ccc(I)cc1,T/C,"dose: 13.0 mg/kg/injection, schedule: Q01DX010 (ip), vehicle: saline",109 % of control
same,T/C,"dose: 26.0 mg/kg/injection, schedule: Q01DX010 (ip), vehicle: saline",109 % of control
same,T/C,"dose: 43.0 mg/kg/injection, schedule: Q01DX010 (ip), vehicle: saline",90 % of control
O=C1/C(=C/c2ccccc2)Cc2ccccc21,T/C,"dose: 25.0 mg/kg/injection, schedule: Q01DX009 (ip), vehicle: saline with Tween-80",96 % of control
same,T/C,"dose: 50.0 mg/kg/injection, schedule: Q01DX009 (ip), vehicle: saline with Tween-80",96 % of control
same,T/C,[1],94 % of control
same,T/C,[2],107 % of control
same,T/C,[3],96 % of control
same,T/C,[4],100 % of control
same,T/C,[6],99 % of control
CC(=O)NC(CO)(CO)CO,T/C,"dose: 100.0 mg/kg/injection, schedule: Q01DX001 (ip), vehicle: saline",100 % of control
same,T/C,"dose: 200.0 mg/kg/injection, schedule: Q01DX001 (ip), vehicle: saline",95 % of control
Cc1ccc(S(=O)(=O)OCCN(CCOS(=O)(=O)c2ccc(C)cc2)c2ccc(F)cc2)cc1,T/C,"dose: 29.3 mg/kg/injection, schedule: Q01DX009 (ip), vehicle: other",190 % of control
same,T/C,"dose: 44.0 mg/kg/injection, schedule: Q01DX009 (ip), vehicle: other",213 % of control
same,T/C,"dose: 66.0 mg/kg/injection, schedule: Q01DX009 (ip), vehicle: other",245 % of control and 272 % of control
same,T/C,"dose: 66.0 mg/kg/injection, schedule: Q04DX003 (ip), vehicle: saline sonified",105 % of control
same,T/C,"dose: 100.0 mg/kg/injection, schedule: Q04DX003 (ip), vehicle: saline sonified",100 % of control
same,T/C,"dose: 150.0 mg/kg/injection, schedule: Q04DX003 (ip), vehicle: saline sonified",105 % of control
same,T/C,"dose: 200.0 mg/kg/injection, schedule: Q01DX009 (ip), vehicle: other",113 % of control
same,T/C,"dose: 200.0 mg/kg/injection, schedule: Q04DX003 (ip), vehicle: other",154 % of control
same,T/C,"dose: 400.0 mg/kg/injection, schedule: Q04DX003 (ip), vehicle: other",150 % of control
CC(=O)NC1=C(N2CC2C)C(=O)C(NC(C)=O)=C(N2CC2C)C1=O (centres undefined),T/C,"dose: 0.62 mg/kg/injection, schedule: Q01DX009 (ip), vehicle: saline",119 % of control
same,T/C,"dose: 1.25 mg/kg/injection, schedule: Q01DX009 (ip), vehicle: saline",114 % of control and 115 % of control
same,T/C,"dose: 4.4 mg/kg/injection, schedule: Q04DX003 (ip), vehicle: saline",118 % of control
same,T/C,"dose: 5.0 mg/kg/injection, schedule: Q01DX009 (ip), vehicle: saline",233 % of control and 215 % of control
same,T/C,"dose: 5.56 mg/kg/injection, schedule: Q01DX009 (ip), vehicle: saline",159 % of control
same,T/C,"dose: 6.6 mg/kg/injection, schedule: Q04DX003 (ip), vehicle: saline",104 % of control
same,T/C,"dose: 8.33 mg/kg/injection, schedule: Q01DX009 (ip), vehicle: saline",236 % of control
same,T/C,"dose: 11.0 mg/kg/injection, schedule: Q04DX003 (ip), vehicle: saline",166 % of control and 215 % of control
same,T/C,"dose: 12.5 mg/kg/injection, schedule: Q01DX009 (ip), vehicle: saline",163 % of control
same,T/C,"dose: 15.0 mg/kg/injection, schedule: Q04DX003 (ip), vehicle: saline",163 % of control
same,T/C,"dose: 16.5 mg/kg/injection, schedule: Q04DX003 (ip), vehicle: saline",230 % of control and 222 % of control
same,T/C,"dose: 18.7 mg/kg/injection, schedule: Q01DX009 (ip), vehicle: saline",90 % of control
same,T/C,"dose: 25.0 mg/kg/injection, schedule: Q04DX003 (ip), vehicle: saline",255 % of control and 110 % of control
same,T/C,"dose: 37.5 mg/kg/injection, schedule: Q04DX003 (ip), vehicle: saline",183 % of control
same,T/C,"dose: 50.0 mg/kg/injection, schedule: Q04DX003 (ip), vehicle: saline",86 % of control and 100 % of control
